This assay concerns the target T1, SMO (Mus musculus, UniProt P56726).
T1 construct: endogenous in cells; host or cells: C3H10T1/2 (ATCC #CCL-226)
In words: Smoothened (SMO)/Sonic Hedgehog (SHh) Transient Transcriptional Activation Assay (Gli-luciferase reporter in C3H10T1/2 cells). The note with it: SHh 250 ng/ml, 20 hrs; for inhibition at 2 µM: C3H 10T1/2, 2 μM test compound, read-out: SMO CELL % INHIBITION @ 2 μM. The class given is cell-based, murine. An outline of the steps: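 C3H10T1/2 cells transiently transfected with a 10× murine Gli-responsive firefly luciferase reporter plus pEGFP, serum-starved 20 h in 0.5% calf serum, then treated with compounds (2 uM–2 nM final) and 250 ng/ml recombinant human SHh for 20 h at 37 °C. Read-out: Dual-Glo luminescence.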
For orientation: A reporter such as luciferase makes a cellular process visible.

Counter-ions that a name gives are not always drawn.

T1 sequence (P56726 33-793): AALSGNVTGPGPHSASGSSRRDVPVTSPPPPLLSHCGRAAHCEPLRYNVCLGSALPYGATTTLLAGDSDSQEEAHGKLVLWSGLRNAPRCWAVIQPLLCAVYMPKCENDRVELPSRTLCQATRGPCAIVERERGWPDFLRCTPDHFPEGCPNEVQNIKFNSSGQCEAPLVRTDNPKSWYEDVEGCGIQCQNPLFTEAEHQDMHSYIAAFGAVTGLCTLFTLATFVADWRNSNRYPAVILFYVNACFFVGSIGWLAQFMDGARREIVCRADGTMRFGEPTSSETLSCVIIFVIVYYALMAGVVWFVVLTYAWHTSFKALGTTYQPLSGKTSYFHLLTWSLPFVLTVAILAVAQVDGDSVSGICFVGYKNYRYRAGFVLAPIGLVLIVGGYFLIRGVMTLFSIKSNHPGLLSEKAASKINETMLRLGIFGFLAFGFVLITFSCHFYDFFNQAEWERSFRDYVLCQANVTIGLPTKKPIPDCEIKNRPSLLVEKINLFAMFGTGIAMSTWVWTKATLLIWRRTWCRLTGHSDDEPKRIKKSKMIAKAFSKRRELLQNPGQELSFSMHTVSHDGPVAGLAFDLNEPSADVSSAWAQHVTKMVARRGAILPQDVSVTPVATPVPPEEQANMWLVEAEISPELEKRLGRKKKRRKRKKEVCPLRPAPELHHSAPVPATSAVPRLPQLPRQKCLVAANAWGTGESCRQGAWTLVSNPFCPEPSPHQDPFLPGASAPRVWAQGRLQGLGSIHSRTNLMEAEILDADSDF

The term inhibition denotes the drop in the measured response relative to a control, in per cent. For the compound `O=C(N[C@@H]1CCC[C@H](c2nc3cc(C(F)(F)F)ccc3[nH]2)C1)c1ccc2c(c1)CCNC2` [Example 287, N-{(1R,3S)-3-[5-(trifluoromethyl)-1H-benzimidazol-2-yl]cyclohexyl}-1,2,3,4-tetrahydroisoquino-line-6-carboxamide HCl], the inhibition at 2 µM came out at 107%.

Turning to `O=C(NC12CCCC(c3nc4cc(C(F)(F)F)ccc4[nH]3)(C1)C2)c1c(F)c(F)c(F)c(F)c1F` [Example 288, 2,3,4,5,6-pentafluoro-N-{5-[5-(trifluoromethyl)-1H-benzimidazol-2-yl]bicyclo[3.1.1]hept-1-yl}benzamide], the inhibition at 2 µM worked out at 93.3%. The same measure, in the same setting: in the case of `O=C(N[C@@H]1CCC[C@H](c2nc3cc(C(F)(F)F)ccc3[nH]2)C1)c1ccc2c(c1)CN(CC1CC1)CC2` [Example 290, 2-(cyclopropyl-methyl)-N-{(1R,3S)-3-[5-(trifluoromethyl)-1H-benzimidazol-2-yl]cyclohexyl}-1,2,3,4-tetrahydroisoquino-line-7-carboxamide HCl] it was 104%. As for `Cl.O=C(N[C@H]1CCC[C@H](c2nc3ccccc3[nH]2)C1)c1ccc2c(c1)CN(CC1CC1)CC2` [Example 291, N-[(1S,3S)-3-(1H-benzimidazol-2-yl)cyclohexyl]-2-(cyclopropyl-methyl)-1,2,3,4-tetrahydroisoquino-line-7-carboxamide HCl], the “SMO CELL % INHIBITION @ 2 μM” value (2 μM test compound) is 85.2%. On to `COCCNc1ccc(C(=O)N[C@@H]2CCC[C@H](c3nc4cc(C(F)(F)F)ccc4[nH]3)C2)cn1` [Example 292, 6-[(2-methoxyethyl)amino]-N-{(1R,3S)-3-[5-(trifluoromethyl)-1H-benzimidazol-2-yl]cyclohexyl} nicotinamide HCl], for which the inhibition at 2 µM was found to be 104%.

For the compound `CN(C)CCNc1ccc(C(=O)N[C@@H]2CCC[C@H](c3nc4cc(C(F)(F)F)ccc4[nH]3)C2)cn1` [Example 293, 6-{[2-(dimethylamino)ethyl]amino}-N-{(1R,3S)-3-[5-(trifluoromethyl)-1H-benzimidazol-2-yl]cyclohexyl}-nicotinamide HCl], the inhibition at 2 µM came to 106%. On the same count and under the same terms, in the case of `O=C1COc2ccc(C(=O)N[C@@H]3CCCC(c4nc5ccccc5[nH]4)C3)cc2N1` (stereo partly drawn) [Example 294, N-[(1R)-3-(1H-benzimidazol-2-yl)cyclohexyl]-3-oxo-3,4-dihydro-2H-1,4-benzoxazine-6-carboxamide (+)-tartrate] it was 62.5%; in that of `O=C(N[C@@H]1CCC[C@H](c2nc3cc(C(F)(F)F)ccc3[nH]2)C1)c1ccc2c(c1)CCN(CC1CC1)C2` [Example 295], 105%; in that of `O=C(N[C@@H]1CCC[C@H](c2nc3cc(Cl)ccc3[nH]2)C1)c1ccc2c(c1)CN(CC1CC1)CC2` [Example 296, N-[(1R,3S)-3-(5-chloro-1H-benzimidazol-2-yl)cyclohexyl]-2-(cyclopropyl-methyl)-1,2,3,4-tetrahydroisoquino-line-7-carboxamide (+)-tartrate], 106%. Same read-out and setting: in the case of `CN1C(=O)COc2ccc(C(=O)N[C@@H]3CCC[C@H](c4nc5ccccc5n4C)C3)cc21` [Example 297, 4-methyl-N-[(1R,3S)-3-(1-methyl-1H-benzimidazol-2-yl)cyclohexyl]-3-oxo-3,4-dihydro-2H-1,4-benzoxazine-6-carboxamide (+)-tartrate] it was 106%. For `COc1cc(OC)cc(C(=O)N[C@@H]2CCC[C@H](c3nc4cc(Cl)ccc4[nH]3)C2)c1` [Example 298, N-[(1R,3S)-3-(5-chloro-1H-benzimidazol-2-yl)cyclohexyl]-3,5-dimethoxybenz-amide (+)-tartrate], the inhibition at 2 µM came out at 104%.

With `O=C1COc2ccc(C(=O)N[C@@H]3CCC[C@H](c4nc5cc(Cl)ccc5[nH]4)C3)cc2N1` [Example 299, N-[(1R,3S)-3-(5-chloro-1H-benzimidazol-2-yl)cyclohexyl]-3-oxo-3,4-dihydro-2H-1,4-benzoxazine-6-carboxamide (+)-tartrate], the inhibition at 2 µM stood at 105%.

As to `O=C1CCc2cc(C(=O)N[C@@H]3CCC[C@H](c4nc5cc(Cl)ccc5[nH]4)C3)ccc2N1` [Example 300, N-[(1R,3S)-3-(5-chloro-1H-benzimidazol-2-yl)cyclohexyl]-2-oxo-1,2,3,4-tetrahydroquino-line-6-carboxamide (+)-tartrate], the inhibition at 2 µM worked out at 106%. As to `CN1C(=O)COc2ccc(C(=O)N[C@@H]3CCC[C@H](c4nc5cc(Cl)ccc5[nH]4)C3)cc21` [Example 301, N-[(1R,3S)-3-(5-chloro-1H-benzimidazol-2-yl)cyclohexyl]-4-methyl-3-oxo-3,4-dihydro-2H-1,4-benzoxazine-6-carboxamide (+)-tartrate], the inhibition at 2 µM is 108%.

`[N-]=[N+]=Nc1c(F)c(F)c(C(=O)NC23CCCC(c4nc5cc(C(F)(F)F)ccc5[nH]4)(C2)C3)c(F)c1F` [Example 302, 4-azido-2,3,5,6-tetrafluoro-N-{5-[5-(trifluoromethyl)-1H-benzimidazol-2-yl]bicyclo[3.1.1]hept-1-yl}benzamide]: the inhibition at 2 µM was 97.1%. Same read-out and setting: the result for `O=C(N[C@@H]1CCC[C@H](c2nc3cc(C(F)(F)F)ccc3[nH]2)C1)c1ccc2c(c1)CNCC2` [Example 303, N-{(1R,3S)-3-[5-(trifluoromethyl)-1H-benzimidazol-2-yl]cyclohexyl}-1,2,3,4-tetrahydroiso-quinoline-7-carboxamide HCl] reads 111%; that for `CN1C(=O)CCc2cc(C(=O)N[C@@H]3CCC[C@H](c4nc5cc(C(F)(F)F)ccc5[nH]4)C3)ccc21` [Example 304, 1-methyl-2-oxo-N-[(1R,3S)-3-[5-(trifluoromethyl)-1H-benzimidazol-2-yl]cyclohexyl}-1,2,3,4-tetrahydroquin-oline-6-carboxamide (+)-tartrate], 111%; that for `CN1C(=O)CCc2cc(C(=O)N[C@@H]3CCC[C@H](c4nc5cc(Cl)ccc5[nH]4)C3)ccc21` [Example 305, N-[(1R,3S)-3-(5-chloro-1H-benzimidazol-2-yl)cyclohexyl]-1-methyl-2-oxo-1,2,3,4-tetrahydroquino-line-6-carboxamide (+)-tartrate], 81.2%. Regarding `Cc1cc2c(cc1C(=O)NC13CCCC(c4nc5cc(C(F)(F)F)ccc5[nH]4)(C1)C3)OCCO2` [Example 306, 7-methyl-N-{5-[5-(trifluoromethyl)-1H-benzimidazol-2-yl]bicyclo[3.1.1]hept-1-yl}-2,3-dihydro-1,4-benzodioxine-6-carboxamide], the inhibition at 2 µM came out at 110%.

Consider `Cc1cc2c(cc1C(=O)N[C@@H]1CCC[C@H](c3nc4ccccc4[nH]3)C1)OCCO2` [Example 307, N-[(1R,3S)-3-(1H-benzimidazol-2-yl)cyclohexyl]-7-methyl-2,3-dihydro-1,4-benzodioxine-6-carboxamide], for which the inhibition at 2 µM was 90.5%.

Take `O=C(N[C@@H]1CCC[C@H](c2nc3ccccc3[nH]2)C1)c1ccc2c(c1)CNCC2` [Example 308, N-[(1R,3S)-3-(1H-benzimidazol-2-yl)cyclohexyl]-1,2,3,4-tetrahydroiso-quinoline-7-carboxamide HCl]: the inhibition at 2 µM was found to be 96.2%. The same measure, in the same setting: the result for `O=C(N[C@@H]1CCC[C@H](c2nc3ccccc3[nH]2)C1)c1ccc2c(c1)CCNC2` [Example 309, N-[(1R,3S)-3-(1H-benzimidazol-2-yl)cyclohexyl]-1,2,3,4-tetrahydroiso-quinoline-6-carboxamide HCl] reads 102%.

The record behind these values is patent publication US20100029615A1, “BENZIMIDAZOLE DERIVATIVES” (priority 2006, published 2010).
